Entries after “also recorded” stand apart in the source; their conditions may differ.
How the values were obtained:
Cyclin D1 = experiment: RT-PCR expression of Cyclin D1 in HaCat; assay type: cell-based, human; settings: 1 μM
Method: (§1) Human normal cornified cell stock HaCat was seeded in a 3.5 cm falcon flat bottom […] dish at the seeding rate of 2×10^4 cells/dish. In 3 days, ANP was added by 1 μM, and RNA was recovered using RNeasy plus (QUIAGEN) from the cells at the time points of 0 minute, 30 minutes, and 4 hours after start of the treatment. cDNA was synthesized using Superscript III (Invitrogen) from 0.2 μg of RNA, and the synthesized cDNA was used as a template for PCR. Using GAPDH as an internal control, the sample was subjected to PCR and then agarose electrophoresis, then stained by Cyber Safe (Invitrogen), the electrophoresis image was photographed on a UV transilluminator with a digital camera (Olympus C5060WZ), and thickness of each band was measured with the Image J (for densitometer analysis). […] Expression of BMP-2 increased by 1.5 times as compared to samples not treated in 4 hours after treatment with ANP.

[1] = system: cardiac muscle of a patient suffering from the dilated cardiomyopathy; experiment: Intermittent intravenous ANP in a patient with dilated cardiomyopathy; assay type: in vivo, human
Method: A small quantity of ANP was administered intermittently, namely once for a week by 1 mg over 4 hours by means of intravenous injection to a patient diagnosed as suffering from the dilated cardiomyopathy who was […]. The contraction percentage was 19% before start of administration of ANP, but was improved up to 40% in 6 months, and also the systemic arterial capacity, which was NYHA IV before start of the treatment, was improved up to NYHA II. […] By continuing administration of ANP once a week for two years, the […] was improved up to NYHA I, and although the patient's prognosis was regarded as 6 months by the conventional therapy, it is now determined that the patient will be able to enjoy the ordinary domestic life for 10 years or more. The patient's cardiac muscle thickness and contractile activity are at present quite good.

[2] = system: head hairs of patients of thin hairs; experiment: ANP applied on head skin of patients of thin hairs; assay type: in vivo, human
Method: ANP was applied by 0.5 to 5 μg to two patients of thin hairs […], after the hairs were cleaned, twice a day (together with 0.5 ml of an isotonic aqueous solution) directly on the patients' head skin. States of pores and hairs and total state of head hairs after administration of ANP were observed and compared to those before start of administration of ANP. Observation of the states was also performed in 40 days and in 60 days after start of ANP administration for assessment. […] In 2 to 3 weeks after start of administration of ANP, it was observed that elasticity and solidity increased in total hairs on the patients' heads. In one month after start of ANP administration, the sites on each patient's head where the head skin had been visible became less visible. The retarded front line of head hairs again moved frontward, and new hairs grew up to the length of 5 to 7 mm. Furthermore, a second short hair was discovered at the side of a long grown hair. […] Black spiral hairs were observed under the pore portions. Just after the spiral hairs came out from under the head skin, the hairs kept the spiral state, but when the hairs become straight, the length was in the range from 3 to 4 mm.

[3] = system: wounds caused by the surgical operation (laser removal of lentigo); experiment: ANP applied to facial wounds caused by laser surgery (left half treated, right half as comparison); assay type: in vivo, human
Method: In a patient who received operation for removing lentigo on the entire facial surface by the laser method, ANP was administered at a dose of 0.1 to 5 μg (with an isotonic aqueous solution at a dose of 0.01 ml to 0.5 ml) twice a day to wounds caused by the surgical operation or areas around the wounds on the left half of the patient's face, and the result was compared to wounds on the right side half of the patient's face. […] Furthermore, tension of skin was observed more clearly in the left side facial area as a whole as compared to that in the right side, and smoothness of the facial skin in the left side was improved.

KRT15 = experiment: RT-PCR expression of KRT15 in HaCat; assay type: cell-based, human; settings: 1 μM; 30 minutes after start of treatment; transitional
Method: as §1

[4] = system: skin of hands (cracked and rough); experiment: ANP applied on hands with cracked and rough skin; assay type: in vivo, human; settings: 0.5 to 5 μg twice a day on backs and palms of both hands
Method: The ANP according to the present invention was applied on both the backs and palms of both hands of a ceramic artist who touched water and mud every day at a dose of 0.5 to 5 μg twice a day.

[5] = system: Human normal cornified cell stock HaCat; experiment: Colony formation of HaCat in drops; assay type: cell-based; settings: 1 μM ANP
Method: In the case of 10 μl drop, formation of any colony was not observed.

[6] = system: Human normal cornified cell stock HaCat; experiment: Wound (scratch) test on confluent HaCat; assay type: cell-based
Method: Human normal cornified cell stock HaCat was seeded in a falcon flat bottom 6-well dish at the seeding rate of 2×10^5 cells/dish. In 3 days, the cells in the confluent state were injured with a pipetteman chip, and the cells were washed with PBS twice, and then ANP was added so that the content was 1 μM (in OptiMEM serum free). In 24 hours, behaviors of the cells were observed (FIG. 4).

CC[C@H](C)[C@@H]1NC(=O)[C@H](CCCNC(=N)N)NC(=O)[C@H](CC(=O)O)NC(=O)[C@H](CCSC)NC(=O)[C@H](CCCNC(=N)N)NC(=O)CNC(=O)CNC(=O)[C@H](Cc2ccccc2)NC(=O)[C@@H](NC(=O)[C@H](CO)NC(=O)[C@H](CO)NC(=O)[C@H](CCCNC(=N)N)NC(=O)[C@H](CCCNC(=N)N)NC(=O)[C@H](CC(C)C)NC(=O)[C@@H](N)CO)CSSC[C@@H](C(=O)N[C@@H](CC(N)=O)C(=O)N[C@@H](CO)C(=O)N[C@@H](Cc2ccccc2)C(=O)N[C@@H](CCCNC(=N)N)C(=O)N[C@@H](Cc2ccc(O)cc2)C(=O)O)NC(=O)CNC(=O)[C@H](CC(C)C)NC(=O)CNC(=O)[C@H](CO)NC(=O)[C@H](CCC(N)=O)NC(=O)[C@H](C)NC(=O)CNC1=O [ANP, atrial natriuretic peptide]
expression rate of Cyclin D1 relative to the original level (Cyclin D1): ⅓ and around ⅓
contraction percentage ([1]; 1 mg i.v. over 4 hours once a week, in 6 months, 19% before start): 40%
NYHA class after continued administration ([1]; ANP once a week for two years): NYHA I
cardiac muscle thickness (ultrasonic diagnosis) ([1]; during ANP treatment): increased
NYHA functional class ([1]; in 6 months, NYHA IV before start of the treatment): NYHA II
time the patient will be able to enjoy ordinary domestic life (prognosis) ([1]; prognosis was 6 months by the conventional therapy): ≥ 10 years
growth of downy hairs on the frontal region ([2]; 0.5 to 5 μg twice a day, one week after start): growth of hairs like downy hairs was observed
elasticity and solidity of total hairs ([2]; 2 to 3 weeks after start): increased
thickness of head hairs ([2]; 40 days after start): thickness increased
visibility of head skin ([2]; 60 days after start): hardly visible
closure of wounds ([3]; 0.1 to 5 μg twice a day, one week after start, versus untreated right side): most of the wounds were closed
restoration of wounds ([3]; ANP area compared to control area / no ANP): advances far quickly; also recorded: more quickly restored
smoothness of the facial skin ([3]; left (treated) side): improved
surgical traces ([3]; sites where ANP was administered): less remarkable
reformation of subcutaneous tissue ([3]; treated left half versus untreated right half of face): clearly earlier
increase of expression rate of KRT15 (KRT15): about 20%
cracked and rough skin symptoms [4]: remarkably improved
capability of forming colonies [5]: form colonies; also recorded: colonies formed
cell motility ([6]; 1 μM): rose
behaviour of cells at wound edges ([6]; 1 μM in OptiMEM serum free, 24 hours): many rounding-like sites are observed; also recorded: rounding-like state was observed at many sites

— patent US8703704B2, “Method for growing, restoring and regenerating hair” (priority 2009, dated 2014)
